Three compounds from BindingDB's records for doi:10.1021/acschembio.7b00385 (Novartis Pharma, 2017) can be followed below.

What all share (test): Liquid growth assay
Holding throughout (settings): 30 °C

The target of assay [1] is Actin (Saccharomyces cerevisiae (strain ATCC 204508 / S288c), UniProt P60010). The procedure:
(§1) Saturated ACT1 wild type (WT) as well as engineered ACT1 R183K (R183K) and ACT1 R335K (R335K) cultures were adjusted to 10 OD600 and 3 uL of serial 1:3 dilutions spotted on YPD agar supplemented with indicated concentrations of Chivosazole F. Growth was scored after 3 days incubation at 30 °C.

Assay [2] addresses Actin [R183K] (Saccharomyces cerevisiae (strain ATCC 204508 / S288c), UniProt P60010, R183K). How it is done: as §1
The target of assay [3] is Actin [R335K] (Saccharomyces cerevisiae (strain ATCC 204508 / S288c), UniProt P60010, R335K). The procedure: as §1

The term IC50 denotes the midpoint of a concentration-inhibition curve. A higher IC50 goes with weaker potency in that assay. Regarding `C/C1=C\[C@@H](C)[C@@H](C)OC(=O)C[C@H](c2ccc(O)cc2)NC(=O)[C@@H](Cc2c[nH]c3ccccc23)N(C)C(=O)[C@H](C)NC(=O)[C@@H](C)C1` [CHEBI:84382], the results for the 50% inhibitory concentration (IC50) in assay [1], in assay [2] and in assay [3] were 16700 nM, 11900 nM and 15100 nM, respectively.

Consider `C/C1=C/C(=O)O[C@@H]2C[C@@H](CC[C@H](C)/C=C\C=C\CC1)O[C@@](O)([C@@H]1CSC(=O)N1)C2` [LAT-A], for which the IC50 was 70 nM in assay [1], 110 nM in assay [2] and 40 nM in assay [3].

As to `COC1CC(O)/C=C/C=C/C=C\C(C)C(C(C)C(O)CC(C)O)OC(=O)\C=C/C=C/C=C\C(C)=C\C(C)C(O)/C=C\C=C\c2coc(n2)C1C` (centres undefined) [SCHEMBL1889389], the IC50 in assay [1] amounted to 140 nM; in assay [2], 380 nM; in assay [3] it was 270 nM.
